How the values were obtained:
[1] = Measurement of parent and amide metabolite levels in mice after single oral dose; format: in vivo; conditions: for extent of amide formation compared to compound Q after normalizing for internal standard: normalized to internal standard
Protocol: The compound of Comparative Example 4 is used as an internal standard in each study in order to control for differences in the inherent rate of metabolism in each study's animal group. […] The maximum concentration, time to maximum concentration, and Area Under the Curve (AUC) for both the parent and the major amide metabolite is determined. […] Relative Amide Formation is thus calculated as follows for each Example X (i.e., Ex. 1, Ex. 2, Ex. 3 and Ex. Q): [formula]

[2] = system: serotonin receptor (e.g., 5-HT2A), dopamine receptor (e.g., D2) and serotonin transporter; assay: Receptor binding studies, binding profile compared to Formula Q
[3] = target: T1, Serotonin 5-HT2A (Homo sapiens, UniProt P28223); assay: Receptor binding studies, inhibition of human serotonin 5-HT2A receptor; conditions: read-out: inhibition of the human serotonin 5-HT2A receptor
T1 sequence (P28223 whole entry): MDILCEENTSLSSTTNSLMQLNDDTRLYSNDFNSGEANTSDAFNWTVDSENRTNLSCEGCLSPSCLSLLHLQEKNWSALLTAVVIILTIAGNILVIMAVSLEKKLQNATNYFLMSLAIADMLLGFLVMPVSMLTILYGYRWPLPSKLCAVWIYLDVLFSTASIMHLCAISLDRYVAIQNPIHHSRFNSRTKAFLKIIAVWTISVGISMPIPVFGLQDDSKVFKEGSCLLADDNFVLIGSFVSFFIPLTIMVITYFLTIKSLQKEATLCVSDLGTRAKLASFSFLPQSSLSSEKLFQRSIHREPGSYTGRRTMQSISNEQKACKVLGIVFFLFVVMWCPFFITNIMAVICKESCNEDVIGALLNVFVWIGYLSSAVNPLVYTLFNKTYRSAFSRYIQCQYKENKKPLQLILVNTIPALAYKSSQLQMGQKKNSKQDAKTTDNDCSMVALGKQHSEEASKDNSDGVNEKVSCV

[4] = Pharmacokinetics in rats, PO and IV cross-over, plasma parent and metabolite AUC; format: in vivo; conditions: male, Sprague-Dawley, rat
Protocol: The pharmacokinetics of each compound is determined after both oral (PO) and intravenous (IV) administration in cross-over studies in rats.
PO Administration: Six male Sprague-Dawley rats are divided into two 3-rat groups for PO administration of compound on day 1 of the study. […] Blood samples are collected at 0.25, 0.5, 1, 2, 4, 6, 8, 12 and 24-hours post dose and analyzed for plasma concentration of the administered compound and its metabolites.
IV Administration: Six male Sprague-Dawley rats are divided into two 3-rat groups for IV administration of compound on day 1 of the study. […] Blood samples are collected at 2 minutes, 5 minutes, 0.25, 0.5, 2, 4, 6, 8 and 12 hours post dose and analyzed for plasma concentration of the administered compound and its metabolites.
All blood samples are processed to plasma and analyzed for parent and metabolite concentrations using liquid chromatography-tandem mass spectrometry (LC-MS/MS). The metabolites analyzed include the N-demethylated amide compound Q-1 (discussed supra). Area under the curve (AUC) of parent and metabolites based on plasma versus time data are calculated using Prism 5.04 software (GraphPad Software, Inc.).

[5] = Pharmacokinetics in dogs, SL and SC, plasma parent and metabolite AUC; format: in vivo, beagle dogs; conditions: dog
Protocol: The pharmacokinetics of each compound is determined after both sublingual (SL) and subcutaneous (SC) administration in non-cross over sequential studies in dogs.
SC Administration: Six male beagle dogs between 2 and 5 years of age are randomized in two groups of three dogs each. […] Dogs in group 2 are administered the compound of Example 2 at a dose of 1 mg/kg (free base equivalent) in a 0.5% methylcellulose/distilled water vehicle. Administration is subcutaneous in the intrascapular region via a 22 or 23 gauge needle. Whole blood samples are collected via the dog's cephalic vein pre-dose, and at post-dose time-points 5, 15 and 30 minutes, 1, 2, 4, 6, 8 and 24 hours. Following a minimum 7-day washout period, the dogs are transferred to the sublingual portion of the study.
Dogs in group 2 are administered the compound of Example 2 at a dose of 1 mg/kg (free base equivalent) in a 0.5% methylcellulose/distilled water vehicle. The animals are anesthetized prior to administration of the dose using propofol (6 mg/kg) and anesthesia is maintained for 30 minutes using 3-4.5% isoflurane. Administration is sublingual and the dosage is applied for 30 minutes, then wiped off using unwoven gauze. Whole blood samples are collected via the dog's cephalic vein pre-dose, and at post-dose time-points 5, 15 and 30 minutes, 1, 2, 4, 6, 8, 24, 36 and 48 hours.
All blood samples are processed to plasma and analyzed for parent and metabolite concentrations using liquid chromatography-tandem mass spectrometry (LC-MS/MS). […] Area under the curve (AUC) of parent and metabolites based on plasma versus time data are calculated using Prism 5.04 software (GraphPad Software, Inc.).

[6] = target: Dopamine D2 (Homo sapiens, UniProt P14416); assay: Receptor activity Ki, dopamine D2; format: binding
Sequence of Dopamine D2 (P14416 whole entry): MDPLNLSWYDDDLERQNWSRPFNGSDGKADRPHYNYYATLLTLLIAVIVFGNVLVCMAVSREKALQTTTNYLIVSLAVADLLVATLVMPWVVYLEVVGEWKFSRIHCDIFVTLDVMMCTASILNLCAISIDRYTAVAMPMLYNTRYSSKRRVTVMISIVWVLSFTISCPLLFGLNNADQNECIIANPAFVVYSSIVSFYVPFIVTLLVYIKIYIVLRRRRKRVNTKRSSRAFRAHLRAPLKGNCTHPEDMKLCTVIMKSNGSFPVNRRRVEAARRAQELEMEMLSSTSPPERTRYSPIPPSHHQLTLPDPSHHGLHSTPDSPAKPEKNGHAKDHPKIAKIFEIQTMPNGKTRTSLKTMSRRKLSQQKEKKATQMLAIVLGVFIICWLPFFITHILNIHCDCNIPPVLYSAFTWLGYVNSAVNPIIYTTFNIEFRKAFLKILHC

[7] = target: Serotonin Transporter (Homo sapiens, UniProt P31645); assay: Receptor activity Ki, serotonin transporter; format: binding
Sequence of Serotonin Transporter (P31645 whole entry): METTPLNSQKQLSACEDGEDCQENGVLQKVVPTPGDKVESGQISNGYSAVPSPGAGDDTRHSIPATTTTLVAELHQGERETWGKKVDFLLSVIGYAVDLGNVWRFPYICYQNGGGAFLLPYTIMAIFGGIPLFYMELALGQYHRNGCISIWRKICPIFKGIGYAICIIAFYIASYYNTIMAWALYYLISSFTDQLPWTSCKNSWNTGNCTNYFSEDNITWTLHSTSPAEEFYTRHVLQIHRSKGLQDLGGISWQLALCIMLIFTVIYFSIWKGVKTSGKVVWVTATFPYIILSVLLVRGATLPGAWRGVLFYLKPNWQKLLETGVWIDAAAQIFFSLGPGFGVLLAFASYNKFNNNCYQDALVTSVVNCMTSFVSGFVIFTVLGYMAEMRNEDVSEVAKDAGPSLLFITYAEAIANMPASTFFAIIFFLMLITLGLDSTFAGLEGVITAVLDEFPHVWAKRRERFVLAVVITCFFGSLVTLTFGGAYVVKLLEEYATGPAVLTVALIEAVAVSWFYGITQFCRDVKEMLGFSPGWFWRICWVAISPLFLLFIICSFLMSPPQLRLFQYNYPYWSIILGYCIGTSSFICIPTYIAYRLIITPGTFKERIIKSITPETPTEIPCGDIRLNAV

[8] = target: Dopamine D1 (Homo sapiens, UniProt P21728); assay: Receptor activity Ki, dopamine D1; format: binding
Sequence of Dopamine D1 (P21728 whole entry): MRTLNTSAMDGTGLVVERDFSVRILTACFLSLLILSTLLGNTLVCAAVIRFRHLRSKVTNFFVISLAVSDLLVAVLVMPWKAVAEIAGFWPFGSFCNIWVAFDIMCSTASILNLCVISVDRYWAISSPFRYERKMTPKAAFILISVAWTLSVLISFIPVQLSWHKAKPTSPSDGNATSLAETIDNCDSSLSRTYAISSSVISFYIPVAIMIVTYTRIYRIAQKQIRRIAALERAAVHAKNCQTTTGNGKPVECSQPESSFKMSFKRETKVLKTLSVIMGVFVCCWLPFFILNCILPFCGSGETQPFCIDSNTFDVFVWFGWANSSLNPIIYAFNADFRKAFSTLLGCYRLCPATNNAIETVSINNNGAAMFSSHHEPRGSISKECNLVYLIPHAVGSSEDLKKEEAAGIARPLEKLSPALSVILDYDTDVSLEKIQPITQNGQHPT

[9] = target: T1, Serotonin 5-HT2A; assay: biochemical

In the case of [2H]C([2H])([2H])N1CCN2c3c(cccc31)[C@@H]1CN(CCCC(=O)c3ccc(F)cc3)CC[C@@H]12 [Example 1, 1-(4-Fluorophenyl)-4-((6bR,10aS)-3-methyl-d3-2,3,6b,7,10,10a-hexahydro-1H-pyrido[3′,4′:4,5]pyrrolo[1,2,3-de]quinoxalin-8(9H)-yl)butan-1-one p-toluenesulfonate], the “extent of conversion of the parent compound to the amide metabolite compared to Formula Q” value (from here on “extent of conversion … compared to Formula Q”) [1] is reported as “considerably lower”, the “extent of amide formation compared to compound Q after normalizing for internal standard” value [1] is reported as “significantly lower” and the “receptor binding profile compared to Formula Q” value [2] is reported as “substantially the same receptor binding profile”.

For [2H]C1([2H])CN2c3c(cccc3N1C)[C@@H]1CN(CCCC(=O)c3ccc(F)cc3)CC[C@@H]12 (stereo in doubt) [Example 2, 2,2-D2-1-(4-fluorophenyl)-4-((6bR,10aS)-3-methyl-2,3,6b,7,10,10a-hexahydro-1H-pyrido[3′,4′:4,5]pyrrolo[1,2,3-de]quinoxalin-8(9H)-yl)butan-1-one], the “extent of conversion … compared to Formula Q” value [1] was “considerably lower”, the “extent of amide formation compared to compound Q after normalizing for internal standard” value [1] was “significantly lower” and the inhibition at 0.1 µM [3] was 98%. For the same compound, the “receptor binding profile compared to Formula Q” value [2] was “substantially the same receptor binding profile”, the AUC ([4]; iv, 1 mg/kg) was 257 ng·h/mL and the AUC ([4]; po, 10 mg/kg) was 58.5 ng·h/mL. The “higher parent AUC compared to dosing of Formula Q” value ([5]; SL dosing) was “about 72%” and the “higher parent AUC for SL compared to SC” value ([5]; SL vs SC) was 61%.

With CN1CCN2c3c(cccc31)[C@@H]1CN(CCCC(=O)c3ccc(F)cc3)CC[C@@H]12 [Formula Q, 4-((6bR,10aS)-3-methyl-2,3,6b,9,10,10a-hexahydro-1H-pyrido[3′,4′: 4,5]pyrrolo[1,2,3-de]quinoxalin-8(7H)-yl)-1-(4-fluorophenyl)-1-butanone, reference compound] the AUC ([4]; iv, 1 mg/kg) was 231 ng·h/mL, the AUC ([4]; po, 10 mg/kg) was 56 ng·h/mL and the “less net AUC of parent compound, SL compared to SC administration” value ([5]; SL vs SC) was 10%.

In the case of O=C1CN2c3c(cccc3[C@@H]3CN(CCCC(=O)c4ccc(F)cc4)CC[C@@H]32)N1 [Example Q-1], the Ki [6] is reported as 50 to 250 nM and the Ki [7] is reported as > 600 nM.

With [2H]C([2H])([2H])N1c2cccc3c2N(CC1([2H])[2H])[C@H]1CCN(CCCC(=O)c2ccc(F)cc2)C[C@@H]31 [Example 3, 2,2-D2-1-(4-fluorophenyl)-4-((6bR,10aS)-3-methyl-d3-2,3,6b,7,10,10a-hexahydro-1H-pyrido[3′,4′:4,5]pyrrolo[1,2,3-de]quinoxalin-8(9H)-yl)butan-1-one p-toluenesulfonate] the “extent of conversion … compared to Formula Q” value [1] was “considerably lower”, the “extent of amide formation compared to compound Q after normalizing for internal standard” value [1] was “significantly lower” and the “receptor binding profile compared to Formula Q” value [2] was “substantially the same receptor binding profile”.

Compound O=C(CCCN1CC[C@H]2[C@@H](C1)c1cccc3c1N2CCN3)c1ccc(F)cc1 [Example Q-1A] has a Ki [6] of 30 nM, a Ki [8] of 110 nM and a Ki [7] of 31 to 78 nM. The Ki [9] was 2 nM.
